In patent publication US12077503B2, “Substituted cyclic amides and their use as herbicides” (FMC CORPORATION, priority 2015, dated 2024):
Read-outs that look alike come from different tables or passages of the source.

Key:
Type in all cases: in vivo
Kochia (Kochia scoparia) [1] = assay: Test A preemergence; conditions: Bassia scoparia, pre-emergence, 240 h; for pest or weed control at 125 g/ha: 125 g ai/ha; for pest or weed control at 500 g/ha: 500 g ai/ha
In short: (§1)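 Visual injury, scored on a 0–100 scale relative to untreated controls, was recorded about 10 d after application. Treatments were a preemergence soil spray over planted seeds or a postemergence spray on plants at the one- to two-leaf stage, 2 to 10 cm tall, all in loam soil–sand blend in the greenhouse.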

[2] = test system: barnyardgrass (Echinochloa crus-galli); assay: Test A preemergence; conditions: Echinochloa crus-galli, pre-emergence, 240 h; for pest or weed control at 125 g/ha: 125 g ai/ha; for pest or weed control at 500 g/ha: 500 g ai/ha
In short: as §1

[3] = test system: pigweed (Amaranthus retroflexus); assay: Test A preemergence; conditions: Amaranthus retroflexus, pre-emergence, 240 h; for pest or weed control at 125 g/ha: 125 g ai/ha; for pest or weed control at 500 g/ha: 500 g ai/ha
[4] = test system: ragweed (common ragweed, Ambrosia elatior); assay: Test A preemergence; conditions: Ambrosia artemisiifolia, pre-emergence, 240 h; for pest or weed control at 125 g/ha: 125 g ai/ha; for pest or weed control at 500 g/ha: 500 g ai/ha
In short: as §1

[5] = test system: ryegrass, Italian (Italian ryegrass, Lolium multiflorum); assay: Test A preemergence; conditions: Lolium multiflorum, pre-emergence, 240 h; for pest or weed control at 125 g/ha: 125 g ai/ha; for pest or weed control at 500 g/ha: 500 g ai/ha
In short: as §1

[6] = test system: Galium (catchweed bedstraw, Galium aparine); assay: Test A postemergence; conditions: Galium, post-emergence, 240 h, 125 g ai/ha
In short: as §1

Kochia (Kochia scoparia) [7] = assay: Test A postemergence; conditions: Bassia scoparia, post-emergence, 240 h, 125 g ai/ha
In short: as §1

[8] = test system: barnyardgrass (Echinochloa crus-galli); assay: Test A postemergence; conditions: Echinochloa crus-galli, post-emergence, 240 h, 125 g ai/ha
In short: as §1

[9] = test system: blackgrass (Alopecurus myosuroides); assay: Test A postemergence; conditions: Alopecurus myosuroides, post-emergence, 240 h, 125 g ai/ha
In short: as §1

corn (Zea mays) = assay: Test A postemergence; conditions: Zea mays, post-emergence, 240 h, 125 g ai/ha; for Corn plant response rating (crop injury, 0 = no effect, 100 = complete kill) at 125 g/ha: Postemergence, visual injury after approximately 10 d, 0 to 100 scale where 0 is no effect and 100 is complete control
In short: as §1

[10] = test system: giant foxtail (Setaria faberii); assay: Test A postemergence; conditions: Setaria faberi, post-emergence, 240 h, 125 g ai/ha
In short: as §1

[11] = test system: pigweed (Amaranthus retroflexus); assay: Test A postemergence; conditions: Amaranthus retroflexus, post-emergence, 240 h, 125 g ai/ha
In short: as §1

[12] = test system: ragweed (common ragweed, Ambrosia elatior); assay: Test A postemergence; conditions: Ambrosia artemisiifolia, post-emergence, 240 h, 125 g ai/ha
In short: as §1

[13] = test system: ryegrass, Italian (Italian ryegrass, Lolium multiflorum); assay: Test A postemergence; conditions: Lolium multiflorum, post-emergence, 240 h, 125 g ai/ha
In short: as §1

[14] = test system: wheat (Triticum aestivum); assay: Test A postemergence; conditions: Triticum aestivum, post-emergence, 240 h, 125 g ai/ha
In short: as §1

[15] = Preemergence, visual injury rating after approximately 10 d, read-out: Kochia plant response rating (0 to 100 scale, 0 is no effect, 100 is complete control)
[16] = preemergence, visual injury rating about 10 d after treatment, 0 to 100 scale (0 no effect, 100 complete control), read-out: Kochia plant response rating
[17] = Preemergence, visual injury rating after approximately 10 d, read-out: Barnyardgrass plant response rating (0 to 100 scale, 0 is no effect, 100 is complete control)
[18] = preemergence, visual injury rating about 10 d after treatment, 0 to 100 scale (0 no effect, 100 complete control), read-out: Barnyardgrass plant response rating
[19] = Preemergence, visual injury rating after approximately 10 d, read-out: Pigweed plant response rating (0 to 100 scale, 0 is no effect, 100 is complete control)
[20] = preemergence, visual injury rating about 10 d after treatment, 0 to 100 scale (0 no effect, 100 complete control), read-out: Pigweed plant response rating
[21] = Preemergence, visual injury rating after approximately 10 d, read-out: Ragweed plant response rating (0 to 100 scale, 0 is no effect, 100 is complete control)
[22] = preemergence, visual injury rating about 10 d after treatment, 0 to 100 scale (0 no effect, 100 complete control), read-out: Ragweed plant response rating
[23] = Preemergence, visual injury rating after approximately 10 d, read-out: Ryegrass, Italian plant response rating (0 to 100 scale, 0 is no effect, 100 is complete control)
[24] = preemergence, visual injury rating about 10 d after treatment, 0 to 100 scale (0 no effect, 100 complete control), read-out: Ryegrass, Italian plant response rating
[25] = Postemergence, visual injury after approximately 10 d, 0 to 100 scale where 0 is no effect and 100 is complete control, read-out: Plant response rating, Galium
[26] = Postemergence, visual injury after approximately 10 d, 0 to 100 scale where 0 is no effect and 100 is complete control, read-out: Plant response rating, Kochia
[27] = Postemergence, visual injury after approximately 10 d, 0 to 100 scale where 0 is no effect and 100 is complete control, read-out: Plant response rating, Barnyardgrass
[28] = Postemergence, visual injury after approximately 10 d, 0 to 100 scale where 0 is no effect and 100 is complete control, read-out: Plant response rating, Blackgrass
[29] = Postemergence, visual injury after approximately 10 d, 0 to 100 scale where 0 is no effect and 100 is complete control, read-out: Plant response rating, Foxtail, Giant
[30] = Postemergence, visual injury after approximately 10 d, 0 to 100 scale where 0 is no effect and 100 is complete control, read-out: Plant response rating, Pigweed
[31] = Postemergence, visual injury after approximately 10 d, 0 to 100 scale where 0 is no effect and 100 is complete control, read-out: Plant response rating, Ragweed
[32] = Postemergence, visual injury after approximately 10 d, 0 to 100 scale where 0 is no effect and 100 is complete control, read-out: Plant response rating, Ryegrass, Italian
[33] = Postemergence, visual injury after approximately 10 d, 0 to 100 scale where 0 is no effect and 100 is complete control, read-out: Plant response rating, Wheat

| Compound | pest or weed control at 125 g/ha (Kochia (Kochia scoparia) [1]; [15]) [%] | pest or weed control at 500 g/ha (Kochia (Kochia scoparia) [1]; [16]) [%] | pest or weed control at 125 g/ha [2, 17] [%] | pest or weed control at 500 g/ha [2, 18] [%] | pest or weed control at 125 g/ha [3, 19] [%] | pest or weed control at 500 g/ha [3, 20] [%] | pest or weed control at 125 g/ha [4, 21] [%] | pest or weed control at 500 g/ha [4, 22] [%] | pest or weed control at 125 g/ha [5, 23] [%] | pest or weed control at 500 g/ha [5, 24] [%] | pest or weed control at 125 g/ha [6, 25] [%] | pest or weed control at 125 g/ha (Kochia (Kochia scoparia) [7]; [26]) [%] | pest or weed control at 125 g/ha [8, 27] [%] | pest or weed control at 125 g/ha [9, 28] [%] | Corn plant response rating (crop injury, 0 = no effect, 100 = complete kill) at 125 g/ha (corn (Zea mays)) [%] | pest or weed control at 125 g/ha [10, 29] [%] | pest or weed control at 125 g/ha [11, 30] [%] | pest or weed control at 125 g/ha [12, 31] [%] | pest or weed control at 125 g/ha [13, 32] [%] | plant injury at 125 g/ha [14, 33] [%] | other results |
| --- | --- | --- | --- | --- | --- | --- | --- | --- | --- | --- | --- | --- | --- | --- | --- | --- | --- | --- | --- | --- | --- |
| CN1C[C@H](c2csc(C(F)(F)F)c2)[C@@H](C(=O)Nc2cccc(F)c2F)C1=O [Compound 959] | 70 | 90 | 90 | 100 | 0 | 30 | 70 | 70 | 20 | 60 | 40 | 50 | 90 | 30 | 30 | 80 | 0 | 0 | 30 | 20 | – |
| Cc1cc(C)cc([C@H]2CN(C)C(=O)[C@@H]2C(=O)Nc2cccc(F)c2F)c1 [Compound 911] | – | – | – | – | – | – | – | – | – | – | – | – | – | – | – | – | – | – | – | – | pest or weed control at 125 g/ha (Kochia (Kochia scoparia) [1]; preemergence, 0 to 100 scale where 0 is no effect and 100 is complete control, read-out: Kochia plant response rating): 90%; pest or weed control at 500 g/ha (Kochia (Kochia scoparia) [1]; Preemergence, visual injury vs untreated controls after approximately 10 d, read-out: Kochia plant response rating (0 to 100 scale where 0 is no effect and 100 is complete control)): 100%; pest or weed control at 125 g/ha ([2]; preemergence, 0 to 100 scale where 0 is no effect and 100 is complete control, read-out: Barnyardgrass plant response rating): 90%; pest or weed control at 500 g/ha ([2]; Preemergence, visual injury vs untreated controls after approximately 10 d, read-out: Barnyardgrass plant response rating (0 to 100 scale where 0 is no effect and 100 is complete control)): 100%; pest or weed control at 125 g/ha ([3]; preemergence, 0 to 100 scale where 0 is no effect and 100 is complete control, read-out: Pigweed plant response rating): 20%; pest or weed control at 500 g/ha ([3]; Preemergence, visual injury vs untreated controls after approximately 10 d, read-out: Pigweed plant response rating (0 to 100 scale where 0 is no effect and 100 is complete control)): 50%; pest or weed control at 125 g/ha ([4]; preemergence, 0 to 100 scale where 0 is no effect and 100 is complete control, read-out: Ragweed plant response rating): 0%; pest or weed control at 500 g/ha ([4]; Preemergence, visual injury vs untreated controls after approximately 10 d, read-out: Ragweed plant response rating (0 to 100 scale where 0 is no effect and 100 is complete control)): 60%; pest or weed control at 125 g/ha ([5]; preemergence, 0 to 100 scale where 0 is no effect and 100 is complete control, read-out: Ryegrass, Italian plant response rating): 70%; pest or weed control at 500 g/ha ([5]; Preemergence, visual injury vs untreated controls after approximately 10 d, read-out: Ryegrass, Italian plant response rating (0 to 100 scale where 0 is no effect and 100 is complete control)): 90%; pest or weed control at 125 g/ha ([6]; postemergence, visual injury rating after approximately 10 d, read-out: Galium plant response rating (0 to 100 scale, 0 no effect, 100 complete control)): 40%; pest or weed control at 125 g/ha (Kochia (Kochia scoparia) [7]; postemergence, visual injury rating after approximately 10 d, read-out: Kochia plant response rating (0 to 100 scale, 0 no effect, 100 complete control)): 50%; pest or weed control at 125 g/ha ([8]; postemergence, visual injury rating after approximately 10 d, read-out: Barnyardgrass plant response rating (0 to 100 scale, 0 no effect, 100 complete control)): 90%; pest or weed control at 125 g/ha ([9]; postemergence, visual injury rating after approximately 10 d, read-out: Blackgrass plant response rating (0 to 100 scale, 0 no effect, 100 complete control)): 50%; plant injury at 125 g/ha (corn (Zea mays); postemergence, visual injury rating after approximately 10 d, read-out: Corn plant response rating (0 to 100 scale, 0 no effect, 100 complete control)): 80%; pest or weed control at 125 g/ha ([10]; postemergence, visual injury rating after approximately 10 d, read-out: Foxtail, Giant plant response rating (0 to 100 scale, 0 no effect, 100 complete control)): 90%; pest or weed control at 125 g/ha ([11]; postemergence, visual injury rating after approximately 10 d, read-out: Pigweed plant response rating (0 to 100 scale, 0 no effect, 100 complete control)): 0%; pest or weed control at 125 g/ha ([12]; postemergence, visual injury rating after approximately 10 d, read-out: Ragweed plant response rating (0 to 100 scale, 0 no effect, 100 complete control)): 0%; pest or weed control at 125 g/ha ([13]; postemergence, visual injury rating after approximately 10 d, read-out: Ryegrass, Italian plant response rating (0 to 100 scale, 0 no effect, 100 complete control)): 70%; plant injury at 125 g/ha ([14]; postemergence, visual injury rating after approximately 10 d, read-out: Wheat plant response rating (0 to 100 scale, 0 no effect, 100 complete control)): 50% |
| CN1C[C@H](c2cc(F)cc(C(F)(F)F)c2)[C@@H](C(=O)Nc2ccc(F)c(F)c2F)C1=O [Compound 993] | 0 | 50 | 90 | 90 | 40 | 80 | 0 | 60 | 80 | 90 | 60 | 20 | 90 | 70 | 80 | 90 | 30 | 0 | 50 | 50 | – |
